Data set [1] relates to Plasmodium falciparum NF54 (chloroquine-sensitive). Nature of the data set: Antiplasmodial [3H] hypoxanthine incorporation assay, NF54 strain. The note with it: for IC50: Plasmodium falciparum. Type of data set: cell-based. The text has this: (§1) The antiplasmodial testing of the extracts was run in duplicate. The method was based upon the [^3H] hypoxanthine incorporation assay, as described by Desjardins and modified by Ridley and the data fitted to generate IC50 and IC90 values, corresponding to the concentrations required to cause 50 and 90% inhibition of parasite growth respectively. The Plasmodium falciparum clones used for the testing were W-2 and D-6. W-2 strain otherwise known as the Indochina clone is known to be resistant to chloroquine, pyrimethamine, sulfadoxine and quinine. Meanwhile the D-6 otherwise known as the Sierra Leonian clone is resistant to mefloquine but sensitive to the above named drugs. Chloroquine, quinine and artesunate were used as reference drugs. […] Compounds 1 and 2 (due to their quantity) were subsequently tested against T. cruzi, L. donovani and T. b. rhodensiense, parasites responsible for Chagas disease, leishmaniasis and human African trypanosomiasis (sleeping sickness) respectively with Benznidazole, Miltefosine and Melarsoprol included as reference drugs. Cytotoxicity was evaluated using HT-29 (human […] carcinoma) with podophyllotoxin as reference drug.
(§2) The crude S. striatinux extracts (MeOH and CH2Cl2) were tested at the Walter Reed Army Institute of Research (WRAIR), Washington. DC. […] The method used for antiplasmodial testing, was based upon [^3H] hypoxanthine incorporation assay, previously described in the literature. Both chloroquine-sensitive (NF54, D6) and chloroquine-resistant (K1, W2) strains and chloroquine, quinine and artesunate used as positive references. L. donovani MHOM-ET-67/L82 (obtained from the spleen of an infected hamster and grown in axenic cultures) was used for the antileishmanial testing while T. brucei squib 427 strain (suramin-sensitive) was used for the antitrypanosomal testing. Cytotoxicity test was done using HT-29 (human […] carcinoma), with podophyllotoxin included as reference drug at a concentration of 0.1 μg/mL.

Data set [2] has as its system Plasmodium falciparum W-2 (chloroquine-resistant, Indochina clone). The data set can be described thus: Antiplasmodial [3H] hypoxanthine incorporation assay, W2 clone. It counts as cell-based.
Excerpt: as §1, §2

For data set [3], the system named is Plasmodium falciparum D-6 (chloroquine-sensitive, Sierra Leonian clone). Nature of the data set: Antiplasmodial [3H] hypoxanthine incorporation assay, D6 clone. It counts as cell-based.
Excerpt: as §1, §2

Data set [4] deals with Plasmodium falciparum K1 (chloroquine-resistant). The data set can be described thus: Antiplasmodial [3H] hypoxanthine incorporation assay, K1 strain. It counts as cell-based. The note with it: P. falciparum K1, results from STI.
Excerpt: as §1
(§3) The crude S. striatinux extracts (MeOH and CH2Cl2) were tested at the Walter Reed Army Institute of Research (WRAIR), Washington. DC. […]

A further data set concerns T. cruzi. The data set can be described thus: Antitrypanosomal testing, T. cruzi. The note with it: calculated versus cytotoxicity (HT-29). It counts as cell-based, Trypanosoma cruzi.
Excerpt: as §1, §3

For data set [5], the system named is L. donovani MHOM-ET-67/L82. Nature of the data set: Antileishmanial testing. It counts as cell-based, Leishmania donovani. The note with it: calculated versus cytotoxicity (HT-29).
Excerpt: as §1, §3

In a further data set the test system is T. b. rhodesiense. Nature of the data set: Antitrypanosomal testing, T. b. rhodesiense. Type of data set: cell-based, Trypanosoma brucei rhodesiense. The note with it: calculated versus cytotoxicity (HT-29).
Excerpt: as §1, §3

A short description of data set [6]: Kinetic solubility, turbidimetric method (nephelometry). The note with it: kinetic from dmso stock, 1% DMSO. It counts as physicochemical. On the procedure:
The solubility of the compounds was estimated via the turbidimetric method using standard test buffers (pH 2.0 and pH 6.5) as previously described. […] There was no significant change in ionization in the molecule across this pH range.
(§4) The kinetic solubility of test compounds was examined by spiking compound in DMSO into either pH 6.5 phosphate buffer or 0.01 M HCl (approximately pH 2.0) with the final DMSO concentration being 1%. Samples were then analysed via nephelometry to determine a solubility range [23]. Effective log D values were measured using a chromatographic method employing a SUPELCOSIL LC-ABZ column using an octanol saturated mobile phase at pH 7.4 [23]. Theoretical physicochemical values were determined using the ACD logD suite of software programs. The molecular weight (MW) should ideally be ≤500 for good membrane permeability, while the hydrogen bond donor/acceptor properties should be respectively ≤5 and ≤10 respectively. The number of single bonds that are not in a ring or constrained system and are not bonded to a hydrogen atom (often referred to as the number of rotatable single bonds) should be ≤10 for acceptable oral bioavailability. The polar surface area (PSA) was calculated using a simplified 2-dimensional modeling approach, which has been validated against a more sophisticated 3-dimentional modeling strategy. For acceptable oral drug absorption and membrane permeability, the PSA value should be ≤120 Å^2. […] The 1-octanol/water partition coefficient were calculated for ionisable compounds. The values were calculated on the basis of log P and pKa values. Log D values are quoted with respect to a relevant pH, thereby providing a partition coefficient profile under physiologically relevant conditions.

The nature of data set [7]: Chromatographic eLogD technique. It counts as physicochemical. The note with it: for chromatographic logD: SUPELCOSIL LC-ABZ column with octanol saturated mobile phase, pH 7.4. On the procedure: The partition coefficients of the two compounds were measured via the previously described chromatographic technique. […] The LogD7.4 value for compound 2 of 0.35 is towards the lower end of the scale normally associated with “drug-like” molecules. […] For compound 2, parameters were also calculated for its terminal aldehyde tautomer, 2a, which is presumed to be the major form of the compound. The overall calculated parameters fall within the ranges associated with “drug-like” molecules.
as §4

The nature of data set [8]: Metabolic stability in human liver microsomes. Type of data set: in vitro ADME. The note with it: for Metabolites detected: LCMS; for microsomal CLint at 2 µM: NADPH dependent degradation, 37 °C, read-out: In vitro CL int; for Microsome predicted E H (hepatic extraction ratio): Q = 20.7 mL/min/kg; for CLint scaled at 2 µM: scaled from in vitro CL int, read-out: Microsome predicted CL int. The source says: The objective here was to determine the in vitro metabolic stability of these two compounds using human liver microsomes as a preliminary indication of their likely in vivo metabolic clearance and potential metabolic products. The method used was as outlined in Obach. […] The compounds maybe susceptible to […] in more complicated test systems based on their structure, since both compounds 1 and 2 contain an α, β-unsaturated ketone moiety with the potential to act as a Michael acceptor (by forming adducts with endogenous nucleophiles such as glutathione). However, this was not investigated and would be the subject of future studies in which we hope to use a simple chemical system (i.e., in aqueous buffer containing free glutathione) or examining the extent of degradation in whole blood.
Test compounds (2 µM) were incubated at 37 °C with human liver microsomes [purchased from BD Gentest (Woburn, MA) using microsome lot # 41207]. The reaction was initiated by the addition of an NADPH-regenerating system (i.e. NADPH is the cofactor required for CYP450-mediated metabolism) and quenched at various time points over the incubation period by the addition of acetonitrile. Additional samples co-activated by NADPH and UDPGA (the co-factor for glucoronidation), were included in the incubation for the qualitative assessment of the potential for glucoronide formation. The relative loss of parent compound and formation of metabolic products was determined using a single quadrupole LCMS instrument (Waters, Manchester, UK).
Test compound concentration versus time data was fitted to an exponential decay function to determine the first-order rate constant for substrate depletion (k). Each substrate depletion rate constant was then used to calculate: (1) an initial in vitro clearance value (in vitro, CL int,in vitro); (2) an intrinsic clearance value (CL int); and (3) a hepatic extraction ratio (E H)1 CLint,invitro=k/microsomalproteincontent(0.4mgprotein/mL) 2 CLint=CLint,invitro×livermass(g)/bodyweight(kg)×45mgmicrosomalprotein/glivermass 3 EH=CLint/Q+CLint For Eqs.

The mark [9] stands for this setting: P. falciparum NF54, results from STI, read-out: IC50 NF54.
Setting [10] is: P. falciparum W2, mean of 2–3 determinations, results from WRAIR, read-out: IC50 W2.
The mark [11] stands for this setting: P. falciparum D6, mean of 2–3 determinations, results from WRAIR, read-out: IC50 D6.
[12] abbreviates: aqueous buffer, pH 6.5 phosphate buffer, read-out: Solubility pH 6.5.
[13] abbreviates: simulated gastric fluid, pH 2 (0.01 M HCl), read-out: Solubility pH 2.

≈ marks a conversion by molar mass, not a printed value. Read-outs that look alike come from different tables or passages of the source.

In the case of `C[C@H]1[C@H](OC(=O)CCC(=O)O)O[C@@H]2O[C@@]3(C)CC[C@H]4[C@H](C)CC[C@@H]1[C@@]24OO3` [Artesunate, reference compound], the IC50 (as a rule, the concentration needed to halve the response being measured) in data set [1] (setting [9]) stood at 0.0019 mg/L (≈ 0.00494 µM).
Consider `CCN(CC)CCCC(C)Nc1ccnc2cc(Cl)ccc12` (centres unmarked) [Chloroquine, reference compound], for which the IC50 in [2] (W2, read-out: IC50 W2) was found to be 0.084 mg/L (≈ 0.263 µM); in data set [3] (D6, read-out: IC50 D6) it was 0.003 mg/L (≈ 0.00938 µM); in data set [1] (NF54, read-out: IC50 NF54), 0.0023 mg/L (≈ 0.00719 µM).
`C/C(=C\CO)[C@H]1C[C@H]2C(C)(C)C(=O)C=C[C@]2(C)OO1` [Compound 1, okundoperoxide]: the 50% inhibitory concentration (IC50) in [2] (setting [10]) was 0.268 mg/L (≈ 1.01 µM). Further, the half-inhibitory concentration (IC50) in data set [3] (setting [11]) stood at 0.195 mg/L (≈ 0.732 µM). For the same molecule, in data set [4], half-maximal inhibition (IC50) was put at 0.661 mg/L (≈ 2.48 µM). Moreover, in [1] (setting [9]), the IC50 came to 0.304 mg/L (≈ 1.14 µM). For the same molecule, the “SI (selective index) T. cruzi” value in the data set on T. cruzi is given as 1. Also, the “SI (selective index) L. donovani” value in data set [5] was 11.4. Also, in the data set with T. b. rhodesiense, the “SI (selective index) T. b. rhod” value is 3.4. The solubility (usually the dissolved amount per volume that the medium holds) in data set [6] (setting [12]) is greater than 0.1 mg/mL. Moreover, the solubility in data set [6] (setting [13]) is greater than 0.1 mg/mL. Also, in data set [7], the “elogD pH 7.4” value was found to be 1.71 and the chromatographic logD (usually lipophilicity estimated from chromatographic retention) came out at 1.71. In data set [8], the Metabolites detected entry is on record as “None detected”, the microsomal CLint at 2 µM came to 12.3 µL/min/mg, the “Microsome predicted E H (hepatic extraction ratio)” value was 0.41 and the CLint scaled at 2 µM is 0.858 L/h/kg.
With `C/C(=C\CO)C(=O)C[C@H]1C(C)(C)C(=O)C=C[C@]1(C)O` [Compound 2, sclerienone C], the IC50 in data set [2] (setting [10]) was 0.354 mg/L (≈ 1.33 µM); in [3] (setting [11]), 0.267 mg/L (≈ 1 µM); in [4] it was 0.511 mg/L (≈ 1.92 µM); in data set [1] (setting [9]), 0.439 mg/L (≈ 1.65 µM). The “SI (selective index) T. cruzi” value in the data set with T. cruzi is on record as 0.74. Moreover, the “SI (selective index) L. donovani” value in data set [5] is recorded as 5.9. In addition, in the data set on T. b. rhodesiense, the “SI (selective index) T. b. rhod” value is recorded as 8.3. Further, the solubility in [6] (setting [12]) was greater than 0.1 mg/mL; in [6] (setting [13]), 0.05 to 0.1 mg/mL (≈ 188 to 375 µM). In addition, the “elogD pH 7.4” value in data set [7] turned out to be 0.35. The same molecule showed a chromatographic logD in data set [7] of 0.35. The Metabolites detected result in [8] is on record as “None detected”. Moreover, the microsomal CLint at 2 µM in [8] was found to be 7.4 µL/min/mg. Further, the “Microsome predicted E H (hepatic extraction ratio)” value in [8] is listed as 0.29. Further, in data set [8], the CLint scaled at 2 µM was 0.516 L/h/kg.
Consider `CCCCCCCCCC(=O)OC/C=C(\C)C(=O)C[C@H]1C(C)(C)C(=O)C=C[C@]1(C)O` [Compound 3], for which the IC50 in [2] (setting [10]) was 0.46 mg/L (≈ 1.09 µM); in data set [3] (setting [11]) it was 0.539 mg/L (≈ 1.28 µM); in data set [1] (setting [9]), greater than 1 mg/L.
On to `C=CC(C)(O)C(=O)C[C@H]1C(C)(C)C(=O)C=C[C@]1(C)O` (some centres unmarked) [Compound 4], for which, in [1] (setting [9]), the IC50 is greater than 1 mg/L.
Regarding `C=CC(C)(O)C(=O)C[C@H]1C(C)(C)C(=O)C=C[C@]1(C)O` (some centres unmarked) [Compound 5], the “IC50 NF54” value in data set [1] (P. falciparum NF54, results from STI) was greater than 1 mg/L.
For `C=CC(C)(O)C1C[C@H]2C(C)(C)C(=O)C=C[C@]2(C)OO1` (some centres unmarked) [Compound 6], the results for the IC50 in data set [2] (setting [10]), in [3] (setting [11]) and in data set [1] (setting [9]) were 0.47 mg/L (≈ 1.76 µM), 0.483 mg/L (≈ 1.81 µM) and greater than 1 mg/L, respectively.
Turning to `C=C[C@H]1C[N@@]2CC[C@H]1C[C@H]2[C@H](O)c1ccnc2ccc(OC)cc12` [Quinine, reference compound], the IC50 in data set [2] (setting [10]) turned out to be 0.097 mg/L (≈ 0.299 µM); in data set [3] (setting [11]), 0.027 mg/L (≈ 0.0832 µM).

Source of the values: publication PMC5481270, “Antiparasitic Sesquiterpenes from the Cameroonian Spice Scleria striatinux and Preliminary In Vitro and In Silico DMPK Assessment” (Natural Products and Bioprospecting, 2017).
